Source: PubChem BioAssay AID2060893 (Molecular Pharmacology Branch, DTP, NCI, 2025)

Test system: K86415-001-R-J1-PDC complex spheroids, viability
Test: Anticancer human tumor K86415-001-R-J1-PDC patient-derived lung adenocarcinoma cell line growth inhibition [RAS]
Conditions: for IC50: curve of first compound; for viability, T/C: stronger effect = lower value
Outline: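 Multi-cell-type spheroids: tumor cells plus HUVEC endothelial cells and mesenchymal stem cells. RAS-pathway inhibitors were combined with targeted agents, each dosed in half-log steps down from clinical Cmax, or from 10 microM when Cmax was unknown.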

[1] = second compound 0.000949 µM, first compound 0.0316 µM
[2] = second compound 0.000949 µM, first compound 0.1 µM
[3] = second compound 0.000949 µM, first compound 0.316 µM
[4] = second compound 0.000949 µM, first compound 1 µM
[5] = second compound 0.000949 µM, first compound 3.16 µM
[6] = second compound 0.000949 µM, first compound 10 µM
[7] = second compound 0.003 µM, first compound 0.0316 µM
[8] = second compound 0.003 µM, first compound 0.1 µM
[9] = second compound 0.003 µM, first compound 0.316 µM
[10] = second compound 0.003 µM, first compound 1 µM
[11] = second compound 0.003 µM, first compound 3.16 µM
[12] = second compound 0.003 µM, first compound 10 µM
[13] = second compound 0.00949 µM, first compound 0.0316 µM
[14] = second compound 0.00949 µM, first compound 0.1 µM
[15] = second compound 0.00949 µM, first compound 0.316 µM
[16] = second compound 0.00949 µM, first compound 1 µM
[17] = second compound 0.00949 µM, first compound 3.16 µM
[18] = second compound 0.00949 µM, first compound 10 µM
[19] = second compound 0.03 µM, first compound 0.0316 µM
[20] = second compound 0.03 µM, first compound 0.1 µM
[21] = second compound 0.03 µM, first compound 0.316 µM
[22] = second compound 0.03 µM, first compound 1 µM
[23] = second compound 0.03 µM, first compound 3.16 µM
[24] = second compound 0.03 µM, first compound 10 µM
[25] = second compound 0.0949 µM, first compound 0.0316 µM
[26] = second compound 0.0949 µM, first compound 0.1 µM
[27] = second compound 0.0949 µM, first compound 0.316 µM
[28] = second compound 0.0949 µM, first compound 1 µM
[29] = second compound 0.0949 µM, first compound 3.16 µM
[30] = second compound 0.0949 µM, first compound 10 µM
[31] = second compound 0.3 µM, first compound 0.0316 µM
[32] = second compound 0.3 µM, first compound 0.1 µM
[33] = second compound 0.3 µM, first compound 0.316 µM
[34] = second compound 0.3 µM, first compound 1 µM
[35] = second compound 0.3 µM, first compound 3.16 µM
[36] = second compound 0.3 µM, first compound 10 µM
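Further: spheroids exposed to agents for seven days before readout.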

Question: For `CC1(O)CCCC1n1c(=O)c(C(F)F)cc2cnc(NC3CCN(S(C)(=O)=O)CC3)nc21` (centres undefined) + CCn1c(-c2cccnc2C(C)OC)c2c3cc(ccc31)N1CCOC(CC(NC(=O)C(C(C)C)N(C)C(=O)C3(F)CCN(C(=O)C#CC(C)(C)N(C)C)CC3)C(=O)N3CCCC(N3)C(=O)OCC(C)(C)C2)C1, which IC50 (second compound 0.000949 µM) is on record?
Answer: < 31.6 nM

Question: What about the IC50 (second compound 0.003 µM) of the same compound?
Answer: < 31.6 nM

Question: What about the IC50 (second compound 0.00949 µM) of the same compound?
Answer: < 31.6 nM

Question: And the IC50 (second compound 0.03 µM)?
Answer: < 31.6 nM

Question: And the IC50 (second compound 0.0949 µM)?
Answer: < 31.6 nM

Question: And the IC50 (second compound 0.3 µM)?
Answer: < 31.6 nM

Question: And the viability, T/C [1]?
Answer: 30.1%

Question: And the viability, T/C [2]?
Answer: 32.6%

Question: What about the viability, T/C [3] of the same compound?
Answer: 21.6%

Question: What about the viability, T/C [4] of the same compound?
Answer: 38.8%

Question: What about the viability, T/C [5] of the same compound?
Answer: 48.3%

Question: And the viability, T/C [6]?
Answer: 4.79%

Question: And the viability, T/C [7]?
Answer: 12.8%

Question: What about the viability, T/C [8] of the same compound?
Answer: 11.3%

Question: And the viability, T/C [9]?
Answer: 14.8%

Question: What about the viability, T/C [10] of the same compound?
Answer: 17.3%

Question: What about the viability, T/C [11] of the same compound?
Answer: 25%

Question: What about the viability, T/C [12] of the same compound?
Answer: 4.45%

Question: What about the viability, T/C [13] of the same compound?
Answer: 13.9%

Question: And the viability, T/C [14]?
Answer: 10.5%

Question: And the viability, T/C [15]?
Answer: 12.7%

Question: And the viability, T/C [16]?
Answer: 18.9%

Question: What about the viability, T/C [17] of the same compound?
Answer: 19.8%

Question: And the viability, T/C [18]?
Answer: 4.71%

Question: And the viability, T/C [19]?
Answer: 13.7%

Question: And the viability, T/C [20]?
Answer: 13.3%

Question: And the viability, T/C [21]?
Answer: 14.6%

Question: And the viability, T/C [22]?
Answer: 15.6%

Question: What about the viability, T/C [23] of the same compound?
Answer: 18.1%

Question: And the viability, T/C [24]?
Answer: 4.45%

Question: And the viability, T/C [25]?
Answer: 11.3%

Question: And the viability, T/C [26]?
Answer: 15%

Question: And the viability, T/C [27]?
Answer: 11.6%

Question: And the viability, T/C [28]?
Answer: 20.2%

Question: What about the viability, T/C [29] of the same compound?
Answer: 14.9%

Question: And the viability, T/C [30]?
Answer: 5.12%

Question: And the viability, T/C [31]?
Answer: 13%

Question: What about the viability, T/C [32] of the same compound?
Answer: 14.5%

Question: And the viability, T/C [33]?
Answer: 12.7%

Question: And the viability, T/C [34]?
Answer: 14.6%

Question: What about the viability, T/C [35] of the same compound?
Answer: 17.6%

Question: What about the viability, T/C [36] of the same compound?
Answer: 3.94%

Question: Which results are given for `CCC(CC)c1cc(NC2CCC(N)C2)n2nccc2n1` (centres undefined) + CCn1c(-c2cccnc2C(C)OC)c2c3cc(ccc31)N1CCOC(CC(NC(=O)C(C(C)C)N(C)C(=O)C3(F)CCN(C(=O)C#CC(C)(C)N(C)C)CC3)C(=O)N3CCCC(N3)C(=O)OCC(C)(C)C2)C1?
Answer: IC50 (second compound 0.000949 µM): 31.6 nM; IC50 (second compound 0.003 µM): < 31.6 nM; IC50 (second compound 0.00949 µM): < 31.6 nM; IC50 (second compound 0.03 µM): < 31.6 nM; IC50 (second compound 0.0949 µM): < 31.6 nM; IC50 (second compound 0.3 µM): < 31.6 nM; viability, T/C [1]: 37.5%; viability, T/C [2]: 40.4%; viability, T/C [3]: 39.2%; viability, T/C [4]: 61.9%; viability, T/C [5]: 2.95%; viability, T/C [6]: 2.43%; viability, T/C [7]: 14.9%; viability, T/C [8]: 14.6%; viability, T/C [9]: 13%; viability, T/C [10]: 20.1%; viability, T/C [11]: 3.32%; viability, T/C [12]: 3.8%; viability, T/C [13]: 15.2%; viability, T/C [14]: 12.3%; viability, T/C [15]: 15%; viability, T/C [16]: 20.3%; viability, T/C [17]: 2.22%; viability, T/C [18]: 3.83%; viability, T/C [19]: 12.6%; viability, T/C [20]: 12.1%; viability, T/C [21]: 15.5%; viability, T/C [22]: 13.3%; viability, T/C [23]: 1.81%; viability, T/C [24]: 3.54%; viability, T/C [25]: 12.4%; viability, T/C [26]: 13.6%; viability, T/C [27]: 15.6%; viability, T/C [28]: 13.9%; viability, T/C [29]: 1.94%; viability, T/C [30]: 3.52%; viability, T/C [31]: 11.8%; viability, T/C [32]: 14.9%; viability, T/C [33]: 12.4%; viability, T/C [34]: 9.04%; viability, T/C [35]: 2.28%; viability, T/C [36]: 3.42%
